Laboratory results reported in patent publication US20100093662A1, “NOVEL AMPHIPHILIC CYCLODEXTRIN DERIVATIVES” (CENTRE NATIONAL DE LA RECHERCHE SCIENTIFIQUE-CNRS-, priority 2006, published 2010).

Tests used:
BNL-CL2 cells [1] = assay: In vitro transfection of nanoparticles of DNA, luciferase assay; assay type: cell-based, Murine; conditions: 0.5 μg of DNA per well (FIG. 6: N/P=10)
Procedure: (§1) Murine embryo cells BNL-CL2 are grown in 96-well plates until a density of 2×10^4 cells/well in a DMEM culture medium (Dulbelcco's Modified Eagle Medium, Gibco-BRL) containing 10% foetal calf serum (SVF; Sigma) at 37° C. in a humid atmosphere with a proportion of 5% CO2/95% air.
(§2) The complexes between compound no. 8, no. 16 or polyethyleneimine (PEI), and plasmid pTG11236 are diluted in 100 μl of DMEM so as to obtain 0.5 μg of DNA in the well.
(§3) The culture medium is removed and replaced by 100 μl of solution of nanoparticle complex/DNA in DMEM. After 4 hrs and 24 hrs, 50 and 100 μL of DMEM containing 30% and 10% of FCS, respectively, are added. After 48 hrs, the transfection is stopped, the culture medium is removed and the cells are washed with PBS (2×100 μL), then lysed with 50 μL of lysis buffer (Promega, Charbonnières, France). The lysates are frozen at −32° C. until the luciferase and protein assay.
The luciferase assay is used to assess the efficacy of transfection. This assay is based on a chimioluminescence reaction whose principle is based on oxydation by luciferase of its substrate (luciferine) with concomitant production of a photon. The activity of the luciferase is measured with a Biolumat LB96P WMP100 apparatus (BERTHOLD) for 10 sec after the injection of 50 μl of reagent containing luciferine (Prmèga assay kit) in each well containing 10 μl of cell extract. […]

BNL-CL2 cells [2] = assay: Cell viability after transfection (BCA protein assay); assay type: cell-based, Murine; conditions: for cell viability compared with PEI/DNA polyplexes at the same N/P ratios: N/P ratios>10; for cell viability after transfection: complexes with pTG11236, N/P 5 to 50, 0.5 μg plasmid/well
Procedure: as §1, §2, §3
The protein assay is based on the BCA test (Pierce). The protein assay is carried out on 15 μl of cell lysate to which are added 300 μl of Pierce reagent (BCA Protein Assay Reagent). It consists of a colorimetric assay which is carried out with UV/visible MRX spectrophotometry (DYNEX Technologies). For each assay, a standard series is carried out with BSA (Bovine Serum Albumin, BIO-RAD), of 0 to 30 μg per well. The reading is taken at 570 nm, after 30 […] at ambient temperature. With this standard BSA series, the OD may be expressed in mg of protein/well.
The ratio of the quantities of proteins corresponding to the transfected and non transfected (100% cell viability) cells is used to assess the cell viability of the complexes (expressed in %).
All of the formulations are tested at least 3 times. The results obtained were processed using STATGRAPHICS Plus5.1 software (trade mark). Anova analysis of variance is carried out on the values of the efficacies of transfection (LoglO(fg luciferase/mg protein)) and on the cell viability. It is possible to analyse the impact (on the transfection or cell viability) of the variation of one or several factors by applying a mono- or multifactorial analysis of variance, respectively. The method used to compare the means is the HSD (honestly significant difference) intervals by Tukey.

plasmid pTG11236 = assay: Electrophoretic analysis of nanoparticles of DNA (agarose gel, ethidium bromide); assay type: binding; conditions: for accessibility of the DNA at the intercalation by ethidium bromide: N/P ratio=5, plasmid pTG11236
Procedure: The plasmid pTG11236 (pCMV-SV40-luciferase-SV40 pA), used in the preparation of DNA complexes and for transfection tests is a plasmid with 5739 pairs of bases. The quantities of compounds used are calculated to obtain a DNA concentration of 0.1 mg·mL^−1 (303 μM in phosphate equivalent) and the desired Nitrogen/Phosphate (N/P) ratios. Tests for values of N/P=5, 10, 30 and 50 were carried out both for compound no. 8 and for compound no. 16. As a reference transfection formulation (positive control), we used polyplexes formulated with the same plasmid and the polycationic polymer polyethyleneimine (branched PEI, 25 kDa), and naked DNA as a negative control.
For the preparation of the complexes, the DNA is diluted in HEPES (20 mM, pH 7.4) until a final concentration of 303 μM in phosphate equivalent, then the quantity of compound no. 8 or no. 16 necessary, obtained from a stock solution of 20 mg·mL^−1 in DMSO-water 1:2 (v/v) is added in order to obtain the desired N/P ratio. For the PEI, a 0.1M stock solution in water is used. The mixtures are vortexed for 10 sec and used in the characterisation and for the transfection tests, as described below.
10 μl of each formulation of complexes prepared as mentioned above are diluted once in the loaded buffer (glycerol+bromophenol blue+Tris-acetate-EDTA or TAE). 1 μl of this solution are deposited on a gel with 8% agarose. The rest of the sample is diluted once with a decomplexing solution with 8% sodium dodecyl sulfate (SDS) in TAE, then 10 μl are also deposited on a gel. The electrophoresis is carried out for […] at 50V. The gel is then developed with ethidium bromide (Sigma) in TAE ([…] of a solution of ethidium bromide with a concentration of 10 mg·mL^−1 in 200 mL of TAE). The DNA is also visualised and photographed with an UV transilluminator. FIGS. 2 and 3 are photos of electrophoretic analyses, carried out on agarose gel in the presence of ethidium bromide, of DNA complexes/nanoparticles obtained with compound no. 8 according to an N/P ratio of 5, 10, 30 and 50 respectively.

[3] = Size and polydispersion of white homogenous nanospheres (quasi-elastic diffusion of light), physical stability over time; assay type: physicochemical
Procedure: The method used to prepare white homogenous nanospheres consists in introducing an organic phase of acetone (or tetrahydrofurane) and an amphiphilic cyclodextrin derivative from the invention (1 mg·mL^−1) in an aqueous phase of equivalent volume or a double volume (distilled water), under magnetic stirring (500 r.p.m.) at 25° C. After nanoprecipitation, the organic solvent is eliminated under reduced pressure at +35° C. The aqueous suspension presenting an opalescent to milky appearance (according to the products used) is then concentrated until the final volume desired is obtained, then filtered on a 0.8 μm filter (Millex AA, Millipore, France).
The colloid suspensions are then characterised as regards the granulometry (mean size and polydisperion) and, when they incorporate loaded amphiphilic cyclodextrins, by their zeta potential. The characterisation is carried out using the following methods:
The quasi-elastic diffusion of light is used. A Zetasizer 3000 apparatus equipped with a K7132 correlator (Malvern Instruments, RU) was used. The conditions for measurement are as follows: angle of detection 90°, temperature 25±0.1° C., apparent viscosity 0.89 mPa·s. Before measuring the size, samples are diluted in distilled water if necessary. The hydrodynamic diameter (mean Z) and polydispersion index (PI) of the nanoparticles in suspension are calculated in intensity by the cumulant method by carrying out 3 measurements on the same sample. The value of the hydrodynamic diameter is calculated using the measurement of the translational coefficient of diffusion of particles with Brownian movement. An NanoZS apparatus (Malvern Instruments) was also used to measure the size of the nanocapsules. In the same way, the samples are diluted before measurement, if necessary in water added to Montanox 80 (trade mark).
The studies on the physical stability of particles were carried out over periods ranging from 1 month to 8 months. The corresponding data for a series of amphiphilic cyclodextrins in the invention are indicated in Table 1 providing the granulometric characteristics (mean size and polydispersion index or mean PI), with evolution over time, of different homogenous nanospheres derived from the compounds indicated in the left column, the reference number for said compounds corresponding to those of the compounds described in the above examples.

## CCCCCC(=O)O[C@@H]1[C@@H](OC(=O)CCCCC)[C@H]2O[C@H]3[C@H](OC(=O)CCCCC)[C@@H](OC(=O)CCCCC)[C@@H](O[C@H]4[C@H](OC(=O)CCCCC)[C@@H](OC(=O)CCCCC)[C@@H](O[C@H]5[C@H](OC(=O)CCCCC)[C@@H](OC(=O)CCCCC)[C@@H](O[C@H]6[C@H](OC(=O)CCCCC)[C@@H](OC(=O)CCCCC)[C@@H](O[C@H]7[C@H](OC(=O)CCCCC)[C@@H](OC(=O)CCCCC)[C@@H](O[C@H]8[C@H](OC(=O)CCCCC)[C@@H](OC(=O)CCCCC)[C@@H](O[C@@H]1[C@@H](CSCCNC(=S)NCCN)O2)O[C@@H]8CSCCNC(=S)NCCN)O[C@@H]7CSCCNC(=S)NCCN)O[C@@H]6CSCCNC(=S)NCCN)O[C@@H]5CSCCNC(=S)NCCN)O[C@@H]4CSCCNC(=S)NCCN)O[C@@H]3CSCCNC(=S)NCCN.Cl.Cl.Cl.Cl.Cl.Cl.Cl [compound no. 16, heptakis[6-desoxy-6-(2-(N′-(2-aminoethyl)thioureido)ethylthio)-2,3-di-O-hexanoyl]cyclomaltoheptaose heptachlorhydrate]
BNL-CL2 cells [1]
  levels of transfection compared with N/P 10 polyplexes formulated with PEI: equal
  levels of transfection, times higher than those with naked DNA: about 10,000 times
BNL-CL2 cells [2]
  cell viability compared with PEI/DNA polyplexes at the same N/P ratios: significantly higher
  cell viability after transfection: excellent
Plasmid pTG11236
  accessibility of the DNA at the intercalation by ethidium bromide: no longer accessible

## CCCCCC(=O)O[C@@H]1[C@@H](OC(=O)CCCCC)[C@H]2O[C@H]3[C@H](OC(=O)CCCCC)[C@@H](OC(=O)CCCCC)[C@@H](O[C@H]4[C@H](OC(=O)CCCCC)[C@@H](OC(=O)CCCCC)[C@@H](O[C@H]5[C@H](OC(=O)CCCCC)[C@@H](OC(=O)CCCCC)[C@@H](O[C@H]6[C@H](OC(=O)CCCCC)[C@@H](OC(=O)CCCCC)[C@@H](O[C@H]7[C@H](OC(=O)CCCCC)[C@@H](OC(=O)CCCCC)[C@@H](O[C@H]8[C@H](OC(=O)CCCCC)[C@@H](OC(=O)CCCCC)[C@@H](O[C@@H]1[C@@H](CSCCN=C=S)O2)O[C@@H]8CSCCN=C=S)O[C@@H]7CSCCN=C=S)O[C@@H]6CSCCN=C=S)O[C@@H]5CSCCN=C=S)O[C@@H]4CSCCN=C=S)O[C@@H]3CSCCN=C=S [compound no. 9, heptakis[6-desoxy-2,3-di-0-hexanoyl-6-(2-isothiocyanatoethylthio)]cyclomaltoheptaose]
[3]; 3 months
  IP (polydispersion index): 0.09
  Mean size ± standard deviation (n = 3): 138 ± 2 nm
[3]; initial
  Mean size ± standard deviation (n = 3): 123 ± 2 nm
  PI (polydispersion index): 0.03

## heptakis[6-(2-tert-butoxycarbonylaminoethylthio)-6-desoxy-2,3-di-O-myristoyl]cyclomaltoheptaose [compound no. 10]
[3]; 3 months
  IP (polydispersion index): 0.07
  Mean size ± standard deviation (n = 3): 207 ± 1 nm
[3]; 6 months
  IP (polydispersion index): 0.32
  Mean size ± standard deviation (n = 3): 269 ± 64 nm
[3]; initial
  Mean size ± standard deviation (n = 3): 212 ± 14 nm
  PI (polydispersion index): 0.11

## heptakis[6-(2-aminoethylthio)-6-desoxy-2,3-di-O-hexanoyl]cyclomaltoheptaose heptachlorhydrate [compound no. 8]
BNL-CL2 cells [2]
  cell viability compared with PEI/DNA polyplexes at the same N/P ratios: significantly higher
  cell viability after transfection: excellent
Plasmid pTG11236
  accessibility of the DNA at the intercalation by ethidium bromide: partially accessible
Plasmid pTG11236; N/P ratio≧10, plasmid pTG11236
  complexation of the DNA (absence of DNA bands): total complexation

## CCCCCC(=O)OC1C2OC(CO)C(OC3OC(CO)C(OC4OC(CO)C(OC5OC(CO)C(OC6OC(CSCCNC(=S)NCCSCC7OC8OC9C(CO)OC(OC%10C(CO)OC(OC%11C(CO)OC(OC%12C(CO)OC(OC%13C(CO)OC(OC%14C(CO)OC(OC7C(O)C8O)C(O)C%14O)C(O)C%13O)C(O)C%12O)C(O)C%11O)C(O)C%10O)C(O)C9O)C(OC7OC(CO)C(OC8OC(CO)C(O2)C(OC(=O)CCCCC)C8OC(=O)CCCCC)C(OC(=O)CCCCC)C7OC(=O)CCCCC)C(OC(=O)CCCCC)C6OC(=O)CCCCC)C(OC(=O)CCCCC)C5OC(=O)CCCCC)C(OC(=O)CCCCC)C4OC(=O)CCCCC)C(OC(=O)CCCCC)C3OC(=O)CCCCC)C1OC(=O)CCCCC (stereo not drawn) [compound no. 26]
[3]; initial
  Mean size ± standard deviation (n = 3): 100 ± 20 nm
  PI (polydispersion index): 0.06
